Where a SMILES comes first, the peptide text is derived from it. [ ]: non-standard residue; d: D form. ξ: configuration not given here. Arg(NO2) = N=C(NCCC[C@H](N)C(=O)O)N[N+](=O)[O-]; αMePhe(2,6-F2) = C[C@](N)(Cc1c(F)cccc1F)C(=O)O; ξαMePhe(2,6-F2) = CC(N)(Cc1c(F)cccc1F)C(=O)O; αMePhe(2-F) = C[C@](N)(Cc1ccccc1F)C(=O)O; ξαMePhe(2-F) = CC(N)(Cc1ccccc1F)C(=O)O; hArg = N=C(N)NCCCC[C@H](N)C(=O)O; Cit = NC(=O)NCCC[C@H](N)C(=O)O; Nle = CCCC[C@H](N)C(=O)O; Ac5c = NC1(C(=O)O)CCCC1; Aib = CC(C)(N)C(=O)O
Key:
Assay type in all cases: in vitro ADME
[1] = Stability of peptides in human plasma; settings: human, plasma; for metabolised at 24 h, 2 μM: pH 7.8
Method: (§1) b) Stability of Peptides in Human Plasma, Simulated Gastric Fluid, Intestinal Fluid and Liver Microsomes (Ex-Vivo): Different short-chain peptides (final concentration 2 μM) were incubated with either pooled human plasma (7.5 μL) or simulated gastric fluid (pH 1.5; composition HCl, NaCl and Pepsin) or simulated intestinal fluid (pH 7.5) or human liver microsomes, for 0, 2, 4, 6, 12 and 24 h (37° C.; 50 mM triethanolamine-HCl buffer; pH 7.8). Concentrations of human plasma/simulated gastric fluid/simulated intestinal fluid/human liver microsomes were selected in preliminary experiments to provide degradation of approximately 50% of PTH(1-34) within 1 h, therefore allowing time-dependent degradation to be viewed over 24 h. Reactions were terminated by the addition of TFA/H2O ([…], 10% (v/v)). The reaction products were then applied to a Vydac C18 analytical column (4.6×250-mm) and the major degradation fragment separated from intact short-chain peptides. The column was equilibrated with TFA/H20, at a flow rate of 1 mL/min. Using 0.1% (v/v) TFA in 70% acetonitrile/H2O, the concentration of acetonitrile in the eluting solvent was raised from 0% to 28% over 10 min and from 28% to 42% over 30 min. The absorbance was monitored at 206 nm using UV detector and peaks were collected manually prior to ESI-MS analysis. Area under the curve was measured for test peptides and their metabolites and percentage degradation were calculated at each time point over a period of 24 h. Stability study results of selected peptides, in human plasma, simulated gastric fluid, intestinal fluid and liver microsomes (in vitro) are listed in Table 4.

[2] = Stability of peptides in human liver microsomes; settings: human, microsomes; for % degradation of peptides in 24 h when incubated with liver microsomes: 2 μM, pH 7.8
Method: as §1

[3] = Stability of peptides in simulated gastric fluid (pH 1.5; HCl, NaCl and Pepsin); settings: pH 1.5; for % degradation of peptides in 24 h when incubated with simulated gastric fluid: 2 μM; for half-life (t1/2) in simulated gastric fluid / half-life: simulated gi fluid
Method: as §1

[4] = Stability of peptides in simulated intestinal fluid (pH 7.5); settings: pH 7.5; for half-life (t1/2) in simulated intestinal fluid / half-life: simulated gi fluid; for % degradation of peptides in 24 h when incubated with simulated intestinal fluid: 2 μM
Method: as §1

SMILES	half-life [1] [h]	metabolised at 24 h, 2 μM [1] [%]	half-life [2] [h]	% degradation of peptides in 24 h when incubated with liver microsomes [2] [%]	% degradation of peptides in 24 h when incubated with simulated gastric fluid [3] [%]	half-life (t1/2) in simulated gastric fluid [3]	half-life (t1/2) in simulated intestinal fluid [4]	% degradation of peptides in 24 h when incubated with simulated intestinal fluid [4] [%]	half-life (t1/2) in liver microsomes [2]	half-life [3] [h]	half-life [4] [h]	half-life (t1/2) in human plasma [1]
CCCC[C@H](NC(=O)[C@](C)(Cc1ccccc1F)NC(=O)[C@H](CCC(N)=O)NC(=O)[C@@H](NC(=O)[C@H](CCC(=O)O)NC(=O)C(C)(C)NC(=O)[C@@H](NC(=O)C(C)(C)N)C(C)C)[C@@H](C)CC)C(=O)N[C@@H](Cc1c[nH]cn1)C(=O)N[C@@H](CCC(N)=O)C(=O)N[C@@H](CCCCNC(=N)N)C(=O)NC(C)(C)C(=O)N[C@@H](CCCNC(N)=O)C(=O)N[C@@](C)(Cc1c(F)cccc1F)C(N)=O [Seq. ID. 142] (H-[Aib]V[Aib]EIQ[αMePhe(2-F)][Nle]HQ[hArg][Aib][Cit][αMePhe(2,6-F2)]-NH2)	8	80	1	82	13	(8) h	(6) h	50	–	–	–	–
CCCC[C@H](NC(=O)C(C)(Cc1ccccc1F)NC(=O)[C@H](CCC(N)=O)NC(=O)[C@@H](NC(=O)[C@H](CCC(=O)O)NC(=O)C(C)(C)NC(=O)[C@@H](NC(=O)C(C)(C)N)C(C)C)[C@@H](C)CC)C(=O)N[C@@H](Cc1c[nH]cn1)C(=O)N[C@@H](CCC(N)=O)C(=O)N[C@@H](CCCCNC(=N)N)C(=O)N[C@@H](C)C(=O)NC(C)(C)C(=O)NC(C)(Cc1ccccc1F)C(N)=O (stereo partly shown) [Seq. ID. 161] (H-[Aib]V[Aib]EIQ[ξαMePhe(2-F)][Nle]HQ[hArg]A[Aib][ξαMePhe(2-F)]-NH2)	8	78	1	80	14	(8) h	(6) h	43	–	–	–	–
CCCC[C@H](NC(=O)C(C)(Cc1ccccc1F)NC(=O)[C@H](CCC(N)=O)NC(=O)[C@@H](NC(=O)[C@H](CCC(=O)O)NC(=O)C(C)(C)NC(=O)[C@@H](NC(=O)C(C)(C)N)C(C)C)[C@@H](C)CC)C(=O)N[C@@H](Cc1c[nH]cn1)C(=O)N[C@@H](CCC(N)=O)C(=O)N[C@@H](CCCCNC(=N)N)C(=O)NC(C)(C)C(=O)NC(C)(C)C(=O)NC(C)(Cc1c(F)cccc1F)C(N)=O (stereo partly shown) [Seq. ID. 182] (H-[Aib]V[Aib]EIQ[ξαMePhe(2-F)][Nle]HQ[hArg][Aib][Aib][ξαMePhe(2,6-F2)]-NH2)	> 24	0	–	26	00	–	–	00	(5) h	> 24	> 24	–
CCCC[C@H](NC(=O)C(C)(Cc1c(F)cccc1F)NC(=O)[C@H](CCC(N)=O)NC(=O)[C@@H](NC(=O)[C@H](CCC(=O)O)NC(=O)C(C)(C)NC(=O)[C@@H](NC(=O)C1(N)CCCC1)C(C)C)[C@@H](C)CC)C(=O)N[C@@H](Cc1c[nH]cn1)C(=O)N[C@@H](CCC(N)=O)C(=O)N[C@@H](CCCCNC(=N)N)C(=O)NC(C)(C)C(=O)NC(C)(Cc1c(F)cccc1F)C(=O)NC(C)(Cc1ccccc1F)C(N)=O (stereo partly shown) [Seq. ID. 220] (H-[Ac5c]V[Aib]EIQ[ξαMePhe(2,6-F2)][Nle]HQ[hArg][Aib][ξαMePhe(2,6-F2)][ξαMePhe(2-F)]-NH2)	8	75	1	83	12	(8) h	(6) h	46	–	–	–	–
CCCC[C@H](NC(=O)C(C)(Cc1c(F)cccc1F)NC(=O)[C@H](CCC(N)=O)NC(=O)[C@@H](NC(=O)[C@H](CCC(=O)O)NC(=O)C(C)(C)NC(=O)[C@@H](NC(=O)C1(N)CCCC1)C(C)C)[C@@H](C)CC)C(=O)N[C@@H](Cc1c[nH]cn1)C(=O)N[C@@H](CCC(N)=O)C(=O)N[C@@H](CCCCNC(=N)N)C(=O)NC(C)(C)C(=O)NC(C)(Cc1c(F)cccc1F)C(=O)NC(C)(Cc1c(F)cccc1F)C(N)=O (stereo partly shown) [Seq. ID. 240] (H-[Ac5c]V[Aib]EIQ[ξαMePhe(2,6-F2)][Nle]HQ[hArg][Aib][ξαMePhe(2,6-F2)][ξαMePhe(2,6-F2)]-NH2)	8	71	1	78	14	(8) h	(6) h	40	–	–	–	–
CCCC[C@H](NC(=O)C(C)(Cc1ccccc1F)NC(=O)[C@H](CCC(N)=O)NC(=O)[C@@H](NC(=O)[C@H](CCC(=O)O)NC(=O)C(C)(C)NC(=O)[C@@H](NC(=O)C1(N)CCCC1)C(C)C)[C@@H](C)CC)C(=O)N[C@@H](Cc1c[nH]cn1)C(=O)N[C@@H](CCC(N)=O)C(=O)N[C@@H](CCCCNC(=N)N)C(=O)NC(C)(C)C(=O)N[C@@H](CCCNC(=N)N[N+](=O)[O-])C(=O)NC(C)(Cc1ccccc1F)C(N)=O (stereo partly shown) [Seq. ID. 250] (H-[Ac5c]V[Aib]EIQ[ξαMePhe(2-F)][Nle]HQ[hArg][Aib][Arg(NO2)][ξαMePhe(2-F)]-NH2)	8	78	1	80	14	(8) h	(6) h	43	–	–	–	–
CCCC[C@H](NC(=O)C(C)(Cc1c(F)cccc1F)NC(=O)[C@H](CCC(N)=O)NC(=O)[C@@H](NC(=O)[C@H](CCC(=O)O)NC(=O)C(C)(C)NC(=O)[C@@H](NC(=O)C1(N)CCCC1)C(C)C)[C@@H](C)CC)C(=O)N[C@@H](Cc1c[nH]cn1)C(=O)N[C@@H](CCC(N)=O)C(=O)N[C@@H](CCCCNC(=N)N)C(=O)NC(C)(C)C(=O)N[C@@H](CCCNC(=N)N[N+](=O)[O-])C(=O)NC(C)(Cc1ccccc1F)C(N)=O (stereo partly shown) [Seq. ID. 260] (H-[Ac5c]V[Aib]EIQ[ξαMePhe(2,6-F2)][Nle]HQ[hArg][Aib][Arg(NO2)][ξαMePhe(2-F)]-NH2)	8	70	1	77	15	(8) h	(6) h	41	–	–	–	–
CCCC[C@H](NC(=O)C(C)(Cc1ccccc1F)NC(=O)[C@H](CCC(N)=O)NC(=O)[C@@H](NC(=O)[C@H](CCC(=O)O)NC(=O)C(C)(C)NC(=O)[C@@H](NC(=O)C1(N)CCCC1)C(C)C)[C@@H](C)CC)C(=O)N[C@@H](Cc1c[nH]cn1)C(=O)N[C@@H](CCC(N)=O)C(=O)N[C@@H](CCCCNC(=N)N)C(=O)NC(C)(C)C(=O)N[C@@H](CCCNC(=N)N[N+](=O)[O-])C(=O)NC(C)(Cc1c(F)cccc1F)C(N)=O (stereo partly shown) [Seq. ID. 270] (H-[Ac5c]V[Aib]EIQ[ξαMePhe(2-F)][Nle]HQ[hArg][Aib][Arg(NO2)][ξαMePhe(2,6-F2)]-NH2)	–	78	0.5	100	100	–	–	100	–	0.5	0.5	(9) h

Reference: patent publication US8383581B2, “Short-chain peptides as parathyroid hormone (PTH) receptor agonist” (Cadila Healthcare Limited, priority 2009, dated 2013)
